This is an account of results in patent publication US9980943B2, “Methods of treating muscular dystrophy” (BOARD OF REGENTS OF THE NEVADA SYSTEM OF HIGHER EDUCATION, …, priority 2013, dated 2018).

This assay relates to α7 integrin (LacZ reporter in α7LacZ+/− myoblasts). Briefly: qHTS of the LOPAC library and MLSMR (online screen, α7LacZ+/− myoblasts). As to conditions: for activation at 0.307 µM / activation at 1.53 µM / activation at 7.66 µM / activation at 38.3 µM / Emax / EC50: Mus musculus, Myoblast; for activation at 0.307 µM: read-out: Activity at 0.307 uM [%] **; for activation at 1.53 µM: read-out: Activity at 1.530 uM [%] **; for activation at 7.66 µM: read-out: Activity at 7.660 uM [%] **; for activation at 38.3 µM: read-out: Activity at 38.30uM [%] **; for EC50: read-out: Fit LogAC50 (converted). Background: qHTS replaces the single test concentration by a dilution series.

[1] abbreviates: 48 h, read-out: Fit Infinite Activity [%].

Each structure is given as a SMILES string. Like-named read-outs stand apart in the source and are kept apart here.

Take `COCCN1C=C(C(=O)OC)C(c2ccccc2Cl)C(C(=O)OC)=C1` [Compound 123]: where the note is “48 h”, the activation at 0.307 µM is 5.12%, the activation at 1.53 µM was 12.1%, the activation at 7.66 µM came to 45.1% and the activation at 38.3 µM is 85.5%. Further, the Emax under setting [1] is 96.9%. Besides, where the note is “read-out: Max Response [%]”, the Emax worked out at 85.5%.
Regarding `CC(=O)Nc1ccc(N(C(=O)c2cnccn2)C(C(=O)NC2CCCCC2)c2ccc(F)cc2)cc1` (centres unmarked) [Compound 44], the EC50 is 11.2 µM. For the setting “48 h”, the activation at 0.307 µM was -13.5%, the activation at 1.53 µM is -18.8%, the activation at 7.66 µM is 38.1% and the activation at 38.3 µM was determined as 308%. Also, the Emax under setting [1] amounted to 311%.
On to `COc1ccc(N2CCN(CCC3Oc4cc([N+](=O)[O-])ccc4NC3=O)CC2)cc1` (centres unmarked) [Compound 194], for which the Score turned out to be 42 and the EC50 is 8.91 µM. For the same molecule, for the setting “48 h”, the activation at 0.307 µM is -2.43%, the activation at 1.53 µM stood at 0%, the activation at 7.66 µM was 30.6% and the activation at 38.3 µM came to 68%. In addition, under setting [1], the Emax was determined as 73.9%. In addition, the Emax (read-out: Max Response [%]) is 68%.
As for `O=C(NC1CCCC1)c1ccc(CS(=O)(=O)Cc2ccccc2F)o1` [Compound 7], the EC50 is 4.47 µM. Where the note is “48 h”, the activation at 0.307 µM was determined as 13.4%, the activation at 1.53 µM worked out at 25.3%, the activation at 7.66 µM was found to be 80.6% and the activation at 38.3 µM is 105%. The Emax under setting [1] was found to be 107%.
Consider `CCOc1ccc(NC(=O)CN2C(=O)NC(CCSC)C2=O)cc1` (centres unmarked) [Compound 180], for which the EC50 is 10 µM. In addition, for the setting “48 h”, the activation at 0.307 µM was found to be 0%, the activation at 1.53 µM is -2.4%, the activation at 7.66 µM turned out to be 21.3% and the activation at 38.3 µM is 75.1%. Besides, the Emax under setting [1] turned out to be 76.1%. Moreover, the Emax (read-out: Max Response [%]) was 75.1%.
In the case of `CCOc1ccc2oc(C(=O)OCC(=O)NC(=O)NC)c(C)c2c1` [Compound 115], the EC50 is 7.08 µM. Where the note is “48 h”, the activation at 0.307 µM was -3.94%, the activation at 1.53 µM is 0%, the activation at 7.66 µM worked out at 40.2% and the activation at 38.3 µM came out at 77.6%. Under setting [1], the Emax turned out to be 80.7%. The Emax (read-out: Max Response [%]) is 77.6%.
In the case of `Cc1ccc(-c2csnn2)cc1` [Compound 170], the EC50 was 10 µM. In addition, for the setting “48 h”, the activation at 0.307 µM came out at 2.36%, the activation at 1.53 µM was 5.33%, the activation at 7.66 µM is 22.2% and the activation at 38.3 µM is 87.6%. Also, under setting [1], the Emax is 87.8%. Further, the Emax (read-out: Max Response [%]) is 87.6%.
With `Cc1ccc(S(=O)(=O)N2CN(CC3CCCO3)c3nc4ccccc4nc32)c(C)c1` (centres unmarked) [Compound 91], the EC50 was 11.2 µM. Besides, for the setting “48 h”, the activation at 0.307 µM was -19.2%, the activation at 1.53 µM is -13.3%, the activation at 7.66 µM came to 6.57% and the activation at 38.3 µM came to 121%. Also, under setting [1], the Emax turned out to be 122%. The Emax (read-out: Max Response [%]) amounted to 121%. For the same molecule, for the setting “Table 8 Compound data”, the Score is 43.
`O=C(NCCCn1ccnc1)/C(=C/c1cccs1)NC(=O)c1ccco1` [Compound 124]: under “48 h”, the activation at 0.307 µM is -19.2%, the activation at 1.53 µM is -7.39%, the activation at 7.66 µM is 35.5% and the activation at 38.3 µM is 85.9%. In addition, the Emax under setting [1] came out at 103%. Further, under “read-out: Max Response [%]”, the Emax stood at 85.9%.
In the case of `COc1ccc(Nc2ncnc3ccc(Br)cc23)cc1OC` [Compound 75], the EC50 was 3.98 µM. Under “48 h”, the activation at 0.307 µM came to 28.1%, the activation at 1.53 µM worked out at 40%, the activation at 7.66 µM came out at 79.7% and the activation at 38.3 µM worked out at 95.9%. Further, under setting [1], the Emax turned out to be 98.4%. Moreover, the Emax (read-out: Max Response [%]) came out at 95.9%.
On to `CC1CCN(S(=O)(=O)c2ccc(S(=O)(=O)N3CCCC3)cc2)CC1` [Compound 72], for which the EC50 was 8.91 µM. For the same molecule, where the note is “48 h”, the activation at 0.307 µM is 0.91%, the activation at 1.53 µM is -2.48%, the activation at 7.66 µM came out at 54.5% and the activation at 38.3 µM worked out at 132%. Also, the Emax under setting [1] was determined as 136%. Further, under “read-out: Max Response [%]”, the Emax was 132%.
For the molecule `COc1ccc(C(=O)CN2CCCCC2)cc1` [Compound 181], under “48 h”, the activation at 0.307 µM was determined as 12.4%, the activation at 1.53 µM turned out to be 12.9%, the activation at 7.66 µM is 18.9% and the activation at 38.3 µM was 92.8%. Further, the Emax under setting [1] turned out to be 93%. Also, the Emax (read-out: Max Response [%]) amounted to 92.8%.
In the case of `Cc1ccc(-c2onc3ccc(C(=O)/C=C/N(C)C)cc23)cc1` [Compound 39], the EC50 is 3.55 µM. Moreover, for the setting “48 h”, the activation at 0.307 µM is -7.76%, the activation at 1.53 µM came out at 5.51%, the activation at 7.66 µM was 52.9% and the activation at 38.3 µM stood at 69.1%. Besides, the Emax under setting [1] worked out at 69.5%.
Regarding `COc1ccccc1CNS(=O)(=O)c1ccc(Cl)s1` [Compound 103], the EC50 is 6.31 µM. Moreover, under “48 h”, the activation at 0.307 µM was -22%, the activation at 1.53 µM is -16.4%, the activation at 7.66 µM turned out to be 50.2% and the activation at 38.3 µM amounted to 91.3%. The Emax under setting [1] stood at 96.9%. Besides, under “read-out: Max Response [%]”, the Emax came to 91.3%.
With `CCCCC(C(=O)NC1CCCC1)N(C(=O)c1snc(C(N)=O)c1N)c1ccc(C)cc1` (centres unmarked) [Compound 151], the EC50 was 10 µM. For the same molecule, under “48 h”, the activation at 0.307 µM was -26.6%, the activation at 1.53 µM is -26%, the activation at 7.66 µM worked out at 2.04% and the activation at 38.3 µM is 63.7%. Moreover, under setting [1], the Emax was 65.1%. In addition, the Emax (read-out: Max Response [%]) was found to be 63.7%.
With `COc1cc(/C=C2/C(=N)N3C(SC)=NSC3=NC2=O)ccc1OC(=O)c1ccco1` [Compound 30], the EC50 is 3.98 µM. Further, where the note is “48 h”, the activation at 0.307 µM was -18.3%, the activation at 1.53 µM was -9.07%, the activation at 7.66 µM came out at 55.5% and the activation at 38.3 µM stood at 73.4%. Also, under setting [1], the Emax was 73.6%.
Consider `Cc1ccccc1C(=O)Nc1nnc(SC(C)C)s1` [Compound 196], for which the EC50 was 10 µM. Moreover, under “48 h”, the activation at 0.307 µM is 0%, the activation at 1.53 µM was determined as 0%, the activation at 7.66 µM amounted to 20.6% and the activation at 38.3 µM worked out at 65.1%. The Emax under setting [1] stood at 66.6%. Moreover, the Emax (read-out: Max Response [%]) worked out at 65.1%.
For `Cc1nc2c([nH]1)OC(N)=C(C#N)C21CCN(Cc2ccccc2)CC1` [Compound 132], the “Curve Description” value is reported as “Partial”. Further, under “48 h”, the activation at 0.307 µM was determined as 11.1%, the activation at 1.53 µM came to 13.8%, the activation at 7.66 µM is 23% and the activation at 38.3 µM worked out at 133%. Further, the Emax under setting [1] came to 133%. For the same molecule, the Emax (read-out: Max Response [%]) is 133%.
As for `O=S(=O)(N/C(=N/C1CCCCC1)c1ccccc1F)c1ccccc1` [Compound 156], the EC50 was 10 µM. In addition, for the setting “48 h”, the activation at 0.307 µM stood at 0%, the activation at 1.53 µM stood at 0%, the activation at 7.66 µM stood at 22.9% and the activation at 38.3 µM turned out to be 65.3%. Further, under setting [1], the Emax is 67.8%. In addition, the Emax (read-out: Max Response [%]) worked out at 65.3%.
Regarding `CC(C)N(CCO)C(=O)CCc1nnc(CCCc2ccccc2)o1` [Compound 199], where the note is “48 h”, the activation at 0.307 µM amounted to 0%, the activation at 1.53 µM worked out at 7.61%, the activation at 7.66 µM turned out to be 32.2% and the activation at 38.3 µM stood at 78.1%. In addition, the Emax under setting [1] was determined as 96.2%. Also, the Emax (read-out: Max Response [%]) came to 78.1%.
